Where two headings read alike, the source gives them in different places.
Legend:
FGFR1 = FGFR1 (Homo sapiens, UniProt P11362); design: method as in PMID 19282669; conditions: at 1 μM; cited from earlier work
H1975-osiR-NCI1 cells = assay: Cell-growth-inhibition end-point assay (CellTiter-Glo, 72 h); type: cell-based; conditions: Homo sapiens
Procedure: (§1) After 3–4 days of growth, surviving cells were trypsinized and plated again at the same initial density and the next day, the medium was replaced with a fresh growth medium, supplemented with 2× (relative to the previous concentration) of osimertinib. This process continued until osimertinib concentration reached […]. The newly generated osimertinib-resistant cells (H1975-osiR-NCI1, PC9-osiR-NCI1, HCC827-osiR-NCI1, and HCC827-osiR-NCI2) were then maintained at […] osimertinib.
(§2) Approximately 1500 cells/[…] were plated in 96-well plates with 4 wells for each treatment condition. Plates were incubated at 37 °C. For the cell growth assay, one set of cells was treated each day for 5 days with cell titer glow reagent (Promega), and luciferase luminescence (indicator of cell viability) was measured according to the manufacturer’s protocol. For the growth inhibition end-point assay, cells in 96-well plates were treated with target drugs as follows.

HCC827-osiR-NCI1 cells = assay: as above; type: cell-based; conditions: Homo sapiens
Procedure: as §1, §2

PC9-osiR-NCI1 cells [1] = assay: as above; type: cell-based; conditions: Homo sapiens, read-out: IC50 (osimertinib), PC9-osiR-NCI1
Procedure: as §1, §2

[2] = tested on: H1975, PC9, and HCC827 parental and osimertinib-resistant cells; assay: Cell-growth-inhibition assays, summary over the cell panel; type: cell-based; conditions: Homo sapiens
Procedure: as §2

PC9 cells [3] = assay: Cell-growth-inhibition end-point assay (CellTiter-Glo, 72 h); type: cell-based; conditions: Homo sapiens, PC-9, read-out: IC50 (osimertinib), PC9
Procedure: as §2

HCC827 cells = assay: as above; type: cell-based; conditions: Homo sapiens, HCC827, read-out: IC50 (osimertinib), HCC827
Procedure: as §2

H1975 cells = assay: as above; type: cell-based; conditions: Homo sapiens, NCI-H1975, osimertinib alone; Figure 1B
Procedure: as §2

PC9 cells [4] = assay: Cell-cycle analysis by flow cytometry (propidium iodide); type: cell-based, human; conditions: 50 nM osimertinib or 100 nM AU-16770, 18 h
Procedure: (§3) PC9 and PC9-osiR-NCI1 cells were initially grown in an RPMI-1640 medium supplemented with 10% FBS, 1% penicillin/streptomycin, and 2 […]. Following 3–4 days of growth, cells were trypsinized, replated in 10 cm Petri dishes and grown in drug-free RPMI-1640, 10% FBS, and 1% penicillin/streptomycin. Both groups of cells were treated with DMSO (vehicle), osimertinib (50 nM), or AU-16770 (100 nM) for 18 h. Cells were trypsinized, washed with PBS, fixed in 70% ethanol, washed twice in PBS, and approximately 5 × 10^5 cells/mL were incubated in […] propidium iodide/PBS and 100 units/mL RNase to label the DNA for 1 h before it was analyzed by FACS.

PC9-osiR-NCI1 cells [5] = assay: as above; type: cell-based, human; conditions: 50 nM osimertinib or 100 nM AU-16770, 18 h
Procedure: as §3

[6] = tested on: PC9-osiR-NCI1-derived tumors; assay: Subcutaneous xenograft mouse model; type: in vivo, athymic female nude mice
Procedure: All mice xenograft studies were conducted on 5–6-week-old female athymic nude mice […] with approval from the NCI Animal Care and Use Committee (ACUC). Mice were obtained from NCI-Frederick and maintained in a pathogen-free facility at the NCI. H1975-osiR-NCI1 or PC9-osiR-NCI1 cells were cultured in RPMI (Millipore-Sigma) supplemented with 10% fetal bovine serum (Gemini) and 1% penicillin/streptomycin. All cell lines were then cultured in a humidified incubator with 5% CO2 at 37 °C. Cells were detached using 0.25% trypsin (ThermoFisher) and resuspended in PBS prior to implantation. Approximately 2 × 10^6 cells/0.1 mL/mouse were implanted subcutaneously. […] Tumor growth was monitored twice weekly by bilateral caliper measurement and tumor volume was calculated using the length × diameter^2 formula. Mice with tumor volume <200 mm^3 were randomized into vehicle or treatment groups to ensure equal distribution across groups. However, for tumor tissue collection and lysate preparation, mice with xenografts were maintained with osimertinib until tumor size reached approximately 900 mm^3 prior to drug treatment for 5 days. Vehicle (0.5% methyl cellulose), osimertinib (5 mg/kg/day), AU-15506 (5 mg/kg/day), or AU-16770 (5 mg/kg/day) were administered by oral gavage. AU-15506 or AU-16770 were prepared in a solution containing 10% PEG400, 10% D-ɑ-tocopheryl polyethylene glycol succinate (TPGS), and 0.4% Tween 80. Tumor size was measured twice weekly. Tumor volume for each mouse was converted to percent change based on a baseline volume of 100% on treatment day 0. Tumor growth inhibition was assessed by comparison of either the average tumor volume or mean changes in tumor volume for the control and treatment groups. Statistical significance was evaluated using a two-tailed Student’s t test.

Chain of FGFR1 (P11362 22-822, species assumed): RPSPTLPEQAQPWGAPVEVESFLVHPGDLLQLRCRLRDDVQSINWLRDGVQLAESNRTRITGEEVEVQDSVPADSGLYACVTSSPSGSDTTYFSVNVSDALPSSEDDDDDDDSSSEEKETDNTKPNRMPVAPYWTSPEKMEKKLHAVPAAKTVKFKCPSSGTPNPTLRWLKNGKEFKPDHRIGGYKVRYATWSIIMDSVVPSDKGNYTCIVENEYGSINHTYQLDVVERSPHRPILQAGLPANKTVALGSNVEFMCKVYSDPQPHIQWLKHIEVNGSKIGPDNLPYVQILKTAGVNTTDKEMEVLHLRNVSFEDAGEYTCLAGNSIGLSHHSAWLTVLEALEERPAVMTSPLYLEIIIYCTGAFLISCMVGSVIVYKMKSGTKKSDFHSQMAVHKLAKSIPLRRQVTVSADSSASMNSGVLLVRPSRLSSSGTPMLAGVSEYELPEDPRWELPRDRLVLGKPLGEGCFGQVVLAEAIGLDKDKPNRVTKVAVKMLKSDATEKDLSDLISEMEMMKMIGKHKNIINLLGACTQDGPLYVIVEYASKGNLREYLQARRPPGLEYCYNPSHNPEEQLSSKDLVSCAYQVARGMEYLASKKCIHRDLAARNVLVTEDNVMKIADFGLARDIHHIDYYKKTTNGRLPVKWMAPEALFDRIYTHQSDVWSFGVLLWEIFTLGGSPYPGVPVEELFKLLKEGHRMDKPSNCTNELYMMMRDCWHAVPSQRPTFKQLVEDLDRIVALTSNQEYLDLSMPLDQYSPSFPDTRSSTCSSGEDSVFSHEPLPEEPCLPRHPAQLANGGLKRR

| Compound | inhibition of FGFR1 (FGFR1) | IC50 (H1975-osiR-NCI1 cells; NCI-H1975/OSIR, osimertinib alone, read-out: IC50, H1975-osiR cells) | IC50 (H1975-osiR-NCI1 cells; read-out: IC50 (osimertinib), H1975-osiR-NCI1) | IC50 (HCC827-osiR-NCI1 cells; read-out: IC50 (osimertinib), HCC827-osiR-NCI1) | IC50 (HCC827-osiR-NCI1 cells; read-out: IC50, HCC827-osiR cells) | IC50 (PC9-osiR-NCI1 cells [1]) | IC50 ([2]; read-out: IC50s, osimertinib-resistant cells (range over cell lines)) | IC50 ([2]; read-out: IC50s, osimertinib-sensitive cells (range over cell lines)) | IC50 (PC9 cells [3]) | IC50 (HCC827 cells) | IC50 (H1975 cells) | Cell Cycle Phase % G1, PC9 (PC9 cells [4]) | Cell Cycle Phase % G2, PC9 (PC9 cells [4]) | Cell Cycle Phase % S, PC9 (PC9 cells [4]) | Cell Cycle Phase % G1, PC9-osiR (PC9-osiR-NCI1 cells [5]) | Cell Cycle Phase % G2, PC9-osiR (PC9-osiR-NCI1 cells [5]) | Cell Cycle Phase % S, PC9-osiR (PC9-osiR-NCI1 cells [5]) | effect on xenograft tumor growth ([6]; 5 mg/kg/day oral gavage, AU-15506 arms 14 days, AU-16770 arms 28 days) | median survival (Kaplan–Meier) ([6]; 5 mg/kg/day, combination = AU-16770-osimertinib (days 0–32), AU-15506-osimertinib (days 33–46)) | Tumor growth inhibition (TGI) ([6]; Day 28, 5 mg/kg/day oral gavage) |
| --- | --- | --- | --- | --- | --- | --- | --- | --- | --- | --- | --- | --- | --- | --- | --- | --- | --- | --- | --- | --- |
| CN(C)C/C=C/C(=O)Nc1ccc(C(=O)N2CCC[C@@H](Nc3ncc(Cl)c(-c4c[nH]c5ccccc45)n3)C2)cc1 [THZ531] | 82% | – | – | – | – | – | – | – | – | – | – | – | – | – | – | – | – | – | – | – |
| C=CC(=O)Nc1cc(Nc2nccc(-c3cn(C)c4ccccc34)n2)c(OC)cc1N(C)CCN(C)C [osimertinib] | – | 1860 nM | 1860 nM | 5490 nM | 5490 nM | 2210 nM | 1860 to 5490 nM | 7.57 to 46.8 nM | 37.5 nM | 7.5 nM | 46.8 nM | 67.40% | 24.8% | 13.10% | 54.10% | 1.41% | 38.40% | induced some tumor regression | 40 days | 50% |

— article PMC10137182, “Novel CDK12/13 Inhibitors AU-15506 and AU-16770 Are Potent Anti-Cancer Agents in EGFR Mutant Lung Adenocarcinoma with and without Osimertinib Resistance” (Cancers, 2023)
